These are literature values, as cited in patent publication US20130011354A1, “Compositions For Enhancing Hair Growth” (Allergan, Inc., priority 2009, published 2013).

The test system of the data set is eyelashes. The settings on record: Lumigan ophthalmic solution applied in the FDA approved manner for glaucoma.

Structures are written as SMILES.

Regarding `CCNC(=O)CCC/C=C\C[C@@H]1[C@@H](/C=C/[C@@H](O)CCc2ccccc2)[C@H](O)C[C@@H]1O` [Bimatoprost, cyclopentane N-ethyl heptanamide-5-cis-2-(3α-hydroxy-5-phenyl-1-trans-pentenyl)-3,5-dihydroxy, [1α,2β,3α,5α]], the growth of eyelashes entry is given as “effective to increase the growth of eyelashes”.
